From patent US20260297085A1, “1 H-PYRROLO[2,3-B]PYRIDIN-4-YL]-2-OXOPYRROLIDINE-3-CARBONITRILE DERIVATIVES AS TYROSINE KINASE 2 (TYK2) INHIBITORS FOR THE TREATMENT OF INFLAMMATORY DISEASES” (BIOGEN MA INC., priority 2023, published 2026)
Structures can show the parent of a compound that is named as a salt.

Columns and labels:
[1] = target: T1, human JAK2 kinase domain (JH1) (Homo sapiens, UniProt O60674); assay: JH1 biochemical assay for JAK2 (ADP-Glo kinase assay, recombinant JH1 catalytic domain, JAK3-974 peptide, 15 μM ATP)
T1 construct: recombinantly generated catalytic kinase (also known as JH1) domain of human JAK1, JAK2, JAK3 and TYK2
T1 sequence (O60674 849-1124 limits assumed): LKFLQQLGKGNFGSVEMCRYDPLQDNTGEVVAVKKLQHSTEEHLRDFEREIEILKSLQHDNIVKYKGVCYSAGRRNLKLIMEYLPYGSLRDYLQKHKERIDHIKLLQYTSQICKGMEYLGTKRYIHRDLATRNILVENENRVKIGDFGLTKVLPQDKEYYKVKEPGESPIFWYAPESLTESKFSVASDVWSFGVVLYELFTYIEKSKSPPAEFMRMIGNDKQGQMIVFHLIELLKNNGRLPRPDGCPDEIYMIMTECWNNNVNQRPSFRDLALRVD
How it was run: (§1)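 Kinase 4 nM JAK1 / 0.2 nM JAK2 / 0.3 nM JAK3 / 2 nM TYK2; 50 μM peptide; 100 min. Unused ATP depleted, ADP→ATP, luciferase luminescence. 11-pt 3-fold series from 10 or 1 μM; normalized, 4PL fit → IC50.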

[2] = target: T2, human JAK1 kinase domain (JH1) (Homo sapiens, UniProt P23458); assay: JH1 biochemical assay for JAK1 (ADP-Glo kinase assay, recombinant JH1 catalytic domain, JAK3-342 peptide, 35 μM ATP)
T2 construct: recombinantly generated catalytic kinase (also known as JH1) domain of human JAK1, JAK2, JAK3 and TYK2
T2 sequence (P23458 875-1153 limits assumed): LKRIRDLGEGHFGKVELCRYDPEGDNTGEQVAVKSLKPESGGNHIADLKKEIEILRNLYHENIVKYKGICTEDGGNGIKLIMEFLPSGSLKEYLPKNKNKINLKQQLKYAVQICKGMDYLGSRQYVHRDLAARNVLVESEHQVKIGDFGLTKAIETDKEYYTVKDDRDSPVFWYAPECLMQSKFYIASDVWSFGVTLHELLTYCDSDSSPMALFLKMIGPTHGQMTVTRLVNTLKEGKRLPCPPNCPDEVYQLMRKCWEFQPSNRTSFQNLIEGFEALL
How it was run: as §1

[3] = target: Tyk2 kinase activity on STAT4 in NK92 cells (Homo sapiens, UniProt P29597); assay: pSTAT4 cell assay (MSD; NK92 cells, 30 ng/mL IL2 stimulation); type: cell-based; details: 30 ng/mL IL2, 15 minutes
Chain of Tyk2 kinase activity on STAT4 in NK92 cells (P29597 whole entry): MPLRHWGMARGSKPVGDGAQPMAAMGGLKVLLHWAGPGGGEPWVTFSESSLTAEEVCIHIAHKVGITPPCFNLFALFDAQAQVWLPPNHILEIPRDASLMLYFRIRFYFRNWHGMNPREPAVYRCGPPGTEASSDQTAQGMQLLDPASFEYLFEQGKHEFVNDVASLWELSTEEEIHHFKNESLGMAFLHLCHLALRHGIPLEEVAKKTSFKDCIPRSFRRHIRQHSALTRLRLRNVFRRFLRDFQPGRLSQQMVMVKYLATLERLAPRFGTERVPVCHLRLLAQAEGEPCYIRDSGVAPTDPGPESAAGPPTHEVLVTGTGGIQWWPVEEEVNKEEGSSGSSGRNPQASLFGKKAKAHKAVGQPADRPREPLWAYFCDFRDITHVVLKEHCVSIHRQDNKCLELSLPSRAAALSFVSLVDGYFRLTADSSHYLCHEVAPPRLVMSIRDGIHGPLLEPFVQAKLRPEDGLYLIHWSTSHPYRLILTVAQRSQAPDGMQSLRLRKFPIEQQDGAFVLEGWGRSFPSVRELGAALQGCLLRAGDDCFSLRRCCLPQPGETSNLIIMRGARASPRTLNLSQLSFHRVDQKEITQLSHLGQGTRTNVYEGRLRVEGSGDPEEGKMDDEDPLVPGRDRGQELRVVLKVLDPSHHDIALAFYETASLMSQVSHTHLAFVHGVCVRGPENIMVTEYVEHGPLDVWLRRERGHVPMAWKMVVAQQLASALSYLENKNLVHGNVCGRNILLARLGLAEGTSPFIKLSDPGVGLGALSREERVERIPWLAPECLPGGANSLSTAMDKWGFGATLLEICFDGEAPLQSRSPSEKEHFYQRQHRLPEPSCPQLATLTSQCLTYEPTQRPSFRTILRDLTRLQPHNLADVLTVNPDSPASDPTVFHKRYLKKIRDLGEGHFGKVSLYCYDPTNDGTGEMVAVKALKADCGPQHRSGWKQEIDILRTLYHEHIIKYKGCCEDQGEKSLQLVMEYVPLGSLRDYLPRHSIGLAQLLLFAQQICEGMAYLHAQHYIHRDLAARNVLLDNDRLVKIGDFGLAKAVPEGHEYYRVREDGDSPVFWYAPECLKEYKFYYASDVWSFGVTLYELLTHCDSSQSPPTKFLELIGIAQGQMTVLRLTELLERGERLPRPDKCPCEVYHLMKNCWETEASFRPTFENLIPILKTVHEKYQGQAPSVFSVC
Procedure: The inhibitory potency of compounds of the disclosure against the Tyk2 kinase activity on STAT4 was evaluated using an MSD-platform plate-based assay format. NK92 cells natively expressing STAT4 and Tyk2 were serum-starved to reduce background phosphorylation levels, then cells were treated compounds for 1 hr with a 10-point four-fold dilution series starting at 10 μM. Cells were then stimulated with 30 ng/mL IL2 for 15 minutes. Cells were lysed and […] levels were quantitated using an MSD plate-based assay with anti-STAT4 antibodies. The data were normalized and the percent activity versus log concentration of compound were fitted with a 4-parameter logistic model to generate to generate IC50 curves.

[4] = target: T3, human TYK2 kinase domain (JH1) (Homo sapiens, UniProt P29597); assay: JH1 biochemical assay for TYK2 (ADP-Glo kinase assay, recombinant JH1 catalytic domain, JAK3-974 peptide, 10 μM ATP)
T3 construct: recombinantly generated catalytic kinase (also known as JH1) domain of human JAK1, JAK2, JAK3 and TYK2
T3 sequence (P29597 897-1176 limits assumed): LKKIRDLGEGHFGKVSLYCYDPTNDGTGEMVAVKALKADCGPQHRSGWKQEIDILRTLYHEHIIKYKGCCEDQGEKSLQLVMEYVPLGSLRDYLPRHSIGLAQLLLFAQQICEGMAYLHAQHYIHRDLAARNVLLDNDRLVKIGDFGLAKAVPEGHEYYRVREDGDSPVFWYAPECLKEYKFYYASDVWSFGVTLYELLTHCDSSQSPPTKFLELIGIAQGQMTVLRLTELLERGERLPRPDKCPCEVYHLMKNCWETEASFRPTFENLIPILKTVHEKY
How it was run: as §1

[5] = target: T4, human JAK3 kinase domain (JH1) (Homo sapiens, UniProt P52333); assay: JH1 biochemical assay for JAK3 (ADP-Glo kinase assay, recombinant JH1 catalytic domain, JAK3-974 peptide, 4 μM ATP)
T4 construct: recombinantly generated catalytic kinase (also known as JH1) domain of human JAK1, JAK2, JAK3 and TYK2
T4 sequence (P52333 822-1111 limits assumed): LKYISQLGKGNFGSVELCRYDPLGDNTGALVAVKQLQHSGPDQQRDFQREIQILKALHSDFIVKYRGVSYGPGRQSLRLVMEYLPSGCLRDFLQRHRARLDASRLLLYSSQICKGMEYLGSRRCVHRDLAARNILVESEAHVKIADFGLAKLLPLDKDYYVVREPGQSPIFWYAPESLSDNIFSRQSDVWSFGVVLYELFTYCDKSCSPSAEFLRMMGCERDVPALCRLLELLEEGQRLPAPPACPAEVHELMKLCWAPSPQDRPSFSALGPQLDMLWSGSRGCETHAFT
How it was run: as §1

C[C@@H]1CN(c2ccnn3cc(-n4cc(CC#N)cn4)cc23)C(=O)[C@]1(C#N)C1CC1 [Example 339, (3R,4S)-1-(6-(4-(cyanomethyl)-1H-pyrazol-1-yl)pyrrolo[1,2-b]pyridazin-4-yl)-3-cyclopropyl-4-methyl-2-oxopyrrolidine-3-carbonitrile]
IC50 ([1]; JAK2 JH1, ADP-Glo): 100 to 1000 nM
IC50 ([2]; JAK1 JH1, ADP-Glo): 100 to 1000 nM
IC50 [3]: > 100 nM
IC50 ([4]; TYK2 JH1, ADP-Glo): 20 to 50 nM
IC50 ([5]; JAK3 JH1, ADP-Glo): 100 to 1000 nM

C[C@@H]1OC[C@@H]1n1cc(-c2cn3ncc(F)c3c(N3C[C@@H](C)[C@@](C#N)(C4CC4)C3=O)n2)cn1 (relative stereo) [Example 305, (3R,4S)-3-cyclopropyl-1-(3-fluoro-6-(1-((2S,3S)-2-methyloxetan-3-yl)-1H-pyrazol-4-yl)pyrazolo[1,5-a]pyrazin-4-yl)-4-methyl-2-oxopyrrolidine-3-carbonitrile and (3R,4S)-3-cyclopropyl-1-(3-fluoro-6-(1-((2R,3R)-2-methyloxetan-3-yl)-1H-pyrazol-4-yl)pyrazolo[1,5-a]pyrazin-4-yl)-4-methyl-2-oxopyrrolidine-3-carbonitrile]
IC50 ([1]; JAK2 JH1, ADP-Glo): < 100 nM
IC50 ([2]; JAK1 JH1, ADP-Glo): < 100 nM
IC50 [3]: > 100 nM
IC50 ([4]; TYK2 JH1, ADP-Glo): < 5 nM
IC50 ([5]; JAK3 JH1, ADP-Glo): < 100 nM

C[C@@H]1CN(c2ccnn3cc(-c4ncccn4)cc23)C(=O)[C@]1(C#N)C1CC1 [Example 139, ((3R,4S)-3-cyclopropyl-4-methyl-2-oxo-1-(6-(pyrimidin-2-yl)pyrrolo[1,2-b]pyridazin-4-yl)pyrrolidine-3-carbonitrile trifluoroacetate]
IC50 ([1]; JH1 kinase domain, ADP-Glo): > 10000 nM
IC50 ([2]; JH1 kinase domain, ADP-Glo): 1000 to 5000 nM
IC50 ([4]; JH1 kinase domain, ADP-Glo): > 100 nM
IC50 ([5]; JH1 kinase domain, ADP-Glo): 1000 to 5000 nM

C[C@@H]1CN(c2ccnn3cc(-c4cccnc4OC(F)F)cc23)C(=O)[C@]1(C#N)C1CC1 [Example 50, (3R,4S)-3-cyclopropyl-1-(6-(2-(difluoromethoxy)pyridin-3-y1)pyrrolo[1,2-b]pyridazin-4-yl)-4-methyl-2-oxopyrrolidine-3-carbonitrile]
IC50 ([1]; JH1 kinase domain, ADP-Glo): 1000 to 5000 nM
IC50 ([2]; JH1 kinase domain, ADP-Glo): 1000 to 5000 nM
IC50 ([4]; JH1 kinase domain, ADP-Glo): 50 to 100 nM
IC50 ([5]; JH1 kinase domain, ADP-Glo): 1000 to 5000 nM

CC[C@H]1C[C@](C#N)(C2CC2)C(=O)N1c1ccnn2cc(-c3cnn(C)c3)cc12 [Example 32, (3R,5S)-3-cyclopropyl-5-ethyl-1-(6-(1-methyl-1H-pyrazol-4-yl)pyrrolo[1,2-b]pyridazin-4-yl)-2-oxopyrrolidine-3-carbonitrile]
IC50 ([1]; JH1 kinase domain, ADP-Glo): > 10000 nM
IC50 ([2]; JH1 kinase domain, ADP-Glo): > 10000 nM
IC50 ([4]; JH1 kinase domain, ADP-Glo): > 100 nM
IC50 ([5]; JH1 kinase domain, ADP-Glo): > 10000 nM

C[C@@H]1CN(c2nc(-c3ccc(C(F)(F)F)nc3)cn3nccc23)C(=O)[C@]1(C#N)C1CC1 [Example 238, (3R,4S)-3-cyclopropyl-4-methyl-2-oxo-1-(6-(6-(trifluoromethyl)pyridin-3-yl)pyrazolo[1,5-a]pyrazin-4-yl)pyrrolidine-3-carbonitrile trifluoroacetate]
IC50 ([1]; JAK2 JH1, ADP-Glo): > 10000 nM
IC50 ([2]; JAK1 JH1, ADP-Glo): > 10000 nM
IC50 ([4]; TYK2 JH1, ADP-Glo): > 100 nM
IC50 ([5]; JAK3 JH1, ADP-Glo): > 10000 nM

Cc1nc(-c2cc3c(N4C[C@@H](C)[C@@](C#N)(C5CC5)C4=O)ccnn3c2)ccc1C#N [Example 119, 6-(4-((3R,4S)-3-cyano-3-cyclopropyl-4-methyl-2-oxopyrrolidin-1-yl)pyrrolo[1,2-b]pyridazin-6-yl)-2-methylnicotinonitrile trifluoroacetate]
IC50 ([1]; JH1 kinase domain, ADP-Glo): 1000 to 5000 nM
IC50 ([2]; JH1 kinase domain, ADP-Glo): 1000 to 5000 nM
IC50 ([4]; JH1 kinase domain, ADP-Glo): 20 to 50 nM
IC50 ([5]; JH1 kinase domain, ADP-Glo): 100 to 1000 nM

C[C@@H]1CN(c2nccn3nc(-c4cnn(C)c4)cc23)C(=O)[C@]1(C#N)C1CC1 [Example 216, (3R,4S)-3-cyclopropyl-4-methyl-1-(2-(1-methyl-1H-pyrazol-4-yl)pyrazolo[1,5-a]pyrazin-4-yl)-2-oxopyrrolidine-3-carbonitrile]
IC50 ([1]; JH1 kinase domain, ADP-Glo): > 10000 nM
IC50 ([2]; JH1 kinase domain, ADP-Glo): > 10000 nM
IC50 ([4]; JH1 kinase domain, ADP-Glo): > 100 nM
IC50 ([5]; JH1 kinase domain, ADP-Glo): > 10000 nM

Cc1cnn(-c2cc3nccc(N4C[C@@H](C)[C@@](C#N)(C5CC5)C4=O)c3o2)c1 [Example 345, (3R,4S)-3-cyclopropyl-4-methyl-1-(2-(4-methyl-1H-pyrazol-1-yl)furo[3,2-b]pyridin-7-yl)-2-oxopyrrolidine-3-carbonitrile]
IC50 ([1]; JAK2 JH1, ADP-Glo): 1000 to 5000 nM
IC50 ([2]; JAK1 JH1, ADP-Glo): 1000 to 5000 nM
IC50 ([4]; TYK2 JH1, ADP-Glo): 20 to 50 nM
IC50 ([5]; JAK3 JH1, ADP-Glo): 1000 to 5000 nM

C[C@@H]1CN(c2ccnn3cc(-n4ccccc4=O)cc23)C(=O)[C@]1(C#N)C1CC1 [Example 340, (3R,4S)-3-cyclopropyl-4-methyl-2-oxo-1-(6-(2-oxopyridin-1(2H)-yl)pyrrolo[1,2-b]pyridazin-4-yl)pyrrolidine-3-carbonitrile]
IC50 ([1]; JAK2 JH1, ADP-Glo): > 10000 nM
IC50 ([2]; JAK1 JH1, ADP-Glo): > 10000 nM
IC50 ([4]; TYK2 JH1, ADP-Glo): > 100 nM
IC50 ([5]; JAK3 JH1, ADP-Glo): 1000 to 5000 nM

C[C@@H]1CN(c2ccnn3cc(-c4cnccn4)cc23)C(=O)[C@]1(C#N)C1CC1 [Example 151, (3R,4S)-3-cyclopropyl-4-methyl-2-oxo-1-(6-(pyrazin-2-yl)pyrrolo[1,2-b]pyridazin-4-yl)pyrrolidine-3-carbonitrile trifluoroacetate]
IC50 ([1]; JH1 kinase domain, ADP-Glo): 1000 to 5000 nM
IC50 ([2]; JH1 kinase domain, ADP-Glo): 1000 to 5000 nM
IC50 ([4]; JH1 kinase domain, ADP-Glo): 50 to 100 nM
IC50 ([5]; JH1 kinase domain, ADP-Glo): 1000 to 5000 nM

C[C@@H]1CN(c2ccnn3cc(-c4nc(C#N)cs4)cc23)C(=O)[C@]1(C#N)C1CC1 [Example 114, 2-(4-((3R,4S)-3-cyano-3-cyclopropyl-4-methyl-2-oxopyrrolidin-1-yl)pyrrolo[1,2-b]pyridazin-6-yl)thiazole-4-carbonitrile trifluoroacetate]
IC50 ([1]; JH1 kinase domain, ADP-Glo): > 10000 nM
IC50 ([2]; JH1 kinase domain, ADP-Glo): > 10000 nM
IC50 ([4]; JH1 kinase domain, ADP-Glo): 20 to 50 nM
IC50 ([5]; JH1 kinase domain, ADP-Glo): 1000 to 5000 nM

C[C@@H]1CN(c2ccnn3cc(-c4ccnn4C)cc23)C(=O)[C@]1(C#N)C1CC1 [Example 49, (3R,4S)-3-cyclopropyl-4-methyl-1-(6-(1-methyl-1H-pyrazol-5-yl)pyrrolo[1,2-b]pyridazin-4-yl)-2-oxopyrrolidine-3-carbonitrile]
IC50 ([1]; JH1 kinase domain, ADP-Glo): 1000 to 5000 nM
IC50 ([2]; JH1 kinase domain, ADP-Glo): 100 to 1000 nM
IC50 ([4]; JH1 kinase domain, ADP-Glo): 20 to 50 nM
IC50 ([5]; JH1 kinase domain, ADP-Glo): 1000 to 5000 nM

C[C@@H]1CN(c2ccnn3cc(-c4cccc5cnn(C)c45)cc23)C(=O)[C@]1(C#N)C1CC1 [Example 78, (3R,4S)-3-cyclopropyl-4-methyl-1-(6-(1-methyl-1H-indazol-7-yl)pyrrolo[1,2-b]pyridazin-4-yl)-2-oxopyrrolidine-3-carbonitrile]
IC50 ([1]; JH1 kinase domain, ADP-Glo): > 10000 nM
IC50 ([2]; JH1 kinase domain, ADP-Glo): > 10000 nM
IC50 ([4]; JH1 kinase domain, ADP-Glo): > 100 nM
IC50 ([5]; JH1 kinase domain, ADP-Glo): > 10000 nM

COc1ncc(-c2cc3c(N4C[C@@H](C)[C@@](C#N)(C5CC5)C4=O)ccnn3c2)cc1C#N [Example 85, 5-(4-((3R,4S)-3-cyano-3-cyclopropyl-4-methyl-2-oxopyrrolidin-1-yl)pyrrolo[1,2-b]pyridazin-6-yl)-2-methoxynicotinonitrile]
IC50 ([1]; JH1 kinase domain, ADP-Glo): 1000 to 5000 nM
IC50 ([2]; JH1 kinase domain, ADP-Glo): 1000 to 5000 nM
IC50 ([4]; JH1 kinase domain, ADP-Glo): 20 to 50 nM
IC50 ([5]; JH1 kinase domain, ADP-Glo): 1000 to 5000 nM

C[C@@H]1CN(c2ccnn3cc(-c4ncccc4O)cc23)C(=O)[C@]1(C#N)C1CC1 [Example 149, (3R,4S)-3-cyclopropyl-1-(6-(3-hydroxypyridin-2-yl)pyrrolo[1,2-b]pyridazin-4-yl)-4-methyl-2-oxopyrrolidine-3-carbonitrile trifluoroacetate]
IC50 ([1]; JH1 kinase domain, ADP-Glo): 5000 to 10000 nM
IC50 ([2]; JH1 kinase domain, ADP-Glo): 1000 to 5000 nM
IC50 ([4]; JH1 kinase domain, ADP-Glo): 20 to 50 nM
IC50 ([5]; JH1 kinase domain, ADP-Glo): 1000 to 5000 nM

C[C@@H]1CN(c2nc(-c3cncc(C(F)(F)F)c3)cn3nccc23)C(=O)[C@]1(C#N)C1CC1 [Example 260, (3R,4S)-3-cyclopropyl-4-methyl-2-oxo-1-(6-(5-(trifluoromethyl)pyridin-3-yl)pyrazolo[1,5-a]pyrazin-4-yl)pyrrolidine-3-carbonitrile trifluoroacetate]
IC50 ([1]; JAK2 JH1, ADP-Glo): 1000 to 5000 nM
IC50 ([2]; JAK1 JH1, ADP-Glo): 100 to 1000 nM
IC50 ([4]; TYK2 JH1, ADP-Glo): 50 to 100 nM
IC50 ([5]; JAK3 JH1, ADP-Glo): 1000 to 5000 nM
